{"source": "PubChem BioAssay (NCI)", "test_in_all_cases": "NCI anticancer screen, dose series, 48 h", "key": {"786-0 renal": {"tested_on": "786-0 renal"}, "A549 NSCLC": {"tested_on": "A549 NSCLC"}, "ACHN renal": {"tested_on": "ACHN renal"}, "CCRF-CEM leukemia": {"tested_on": "CCRF-CEM leukemia"}, "COLO 205 colon": {"tested_on": "COLO 205 colon"}, "DLD-1 colon": {"tested_on": "DLD-1 colon"}, "DMS 114 small cell lung": {"tested_on": "DMS 114 small cell lung"}, "DMS 273 small cell lung": {"tested_on": "DMS 273 small cell lung"}, "EKVX NSCLC": {"tested_on": "EKVX NSCLC"}, "HCC-2998 colon": {"tested_on": "HCC-2998 colon"}, "HCT-116 colon": {"tested_on": "HCT-116 colon"}, "HCT-15 colon": {"tested_on": "HCT-15 colon"}, "HL-60(TB) leukemia": {"tested_on": "HL-60(TB) leukemia"}, "HOP-62 NSCLC": {"tested_on": "HOP-62 NSCLC"}, "HT29 colon": {"tested_on": "HT29 colon"}, "IGROV1 ovarian": {"tested_on": "IGROV1 ovarian"}, "K-562 leukemia": {"tested_on": "K-562 leukemia"}, "KM12 colon": {"tested_on": "KM12 colon"}, "KM20L2 colon": {"tested_on": "KM20L2 colon"}, "LOX IMVI melanoma": {"tested_on": "LOX IMVI melanoma"}, "LXFL 529 NSCLC": {"tested_on": "LXFL 529 NSCLC"}, "M14 melanoma": {"tested_on": "M14 melanoma"}, "M19-MEL melanoma": {"tested_on": "M19-MEL melanoma"}, "MALME-3M melanoma": {"tested_on": "MALME-3M melanoma"}, "MOLT-4 leukemia": {"tested_on": "MOLT-4 leukemia"}, "NCI-H226 lung": {"tested_on": "NCI-H226 lung"}, "NCI-H23 lung": {"tested_on": "NCI-H23 lung"}, "NCI-H460 lung": {"tested_on": "NCI-H460 lung"}, "NCI-H522 lung": {"tested_on": "NCI-H522 lung"}, "OVCAR-3 ovarian": {"tested_on": "OVCAR-3 ovarian"}, "OVCAR-8 ovarian": {"tested_on": "OVCAR-8 ovarian"}, "RPMI-8226 leukemia": {"tested_on": "RPMI-8226 leukemia"}, "RXF 393 renal": {"tested_on": "RXF 393 renal"}, "SF-268 CNS": {"tested_on": "SF-268 CNS"}, "SF-295 CNS": {"tested_on": "SF-295 CNS"}, "SF-539 CNS": {"tested_on": "SF-539 CNS"}, "SK-MEL-28 melanoma": {"tested_on": "SK-MEL-28 melanoma"}, "SK-OV-3 ovarian": {"tested_on": "SK-OV-3 ovarian"}, "SN12C renal": {"tested_on": "SN12C renal"}, "SNB-19 CNS": {"tested_on": "SNB-19 CNS"}, "SNB-75 CNS": {"tested_on": "SNB-75 CNS"}, "SNB-78 CNS": {"tested_on": "SNB-78 CNS"}, "SR leukemia": {"tested_on": "SR leukemia"}, "SW-620 colon": {"tested_on": "SW-620 colon"}, "TK-10 renal": {"tested_on": "TK-10 renal"}, "U251 CNS": {"tested_on": "U251 CNS"}, "UACC-257 melanoma": {"tested_on": "UACC-257 melanoma"}, "UACC-62 melanoma": {"tested_on": "UACC-62 melanoma"}, "UO-31 renal": {"tested_on": "UO-31 renal"}}, "note": "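Dose response: 5 concentrations. Exposure: 48 h. Format: 96-well plates. Endpoint: linear interpolation; highest concentration if not reached. TGI is the concentration that stops growth completely.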"}
{"smiles": "CC(=O)OC1[C@H]2c3cc4c(cc3CN3CCC(C[C@@H]1OC(C)=O)C23)OCO4", "note": "(some centres undefined)", "values": [{"measurement": "TGI", "setting": "786-0 renal", "value": "> 75", "unit": "µM"}, {"measurement": "TGI", "setting": "A549 NSCLC", "value": "> 75", "unit": "µM"}, {"measurement": "TGI", "setting": "ACHN renal", "value": "> 75", "unit": "µM"}, {"measurement": "TGI", "setting": "CCRF-CEM leukemia", "value": "> 75", "unit": "µM"}, {"measurement": "TGI", "setting": "COLO 205 colon", "value": "> 75", "unit": "µM"}, {"measurement": "TGI", "setting": "DLD-1 colon", "value": "> 75", "unit": "µM"}, {"measurement": "TGI", "setting": "DMS 114 small cell lung", "value": "> 75", "unit": "µM"}, {"measurement": "TGI", "setting": "DMS 273 small cell lung", "value": "> 75", "unit": "µM"}, {"measurement": "TGI", "setting": "EKVX NSCLC", "value": "> 75", "unit": "µM"}, {"measurement": "TGI", "setting": "HCC-2998 colon", "value": "> 75", "unit": "µM"}, {"measurement": "TGI", "setting": "HCT-116 colon", "value": "> 75", "unit": "µM"}, {"measurement": "TGI", "setting": "HCT-15 colon", "value": "> 75", "unit": "µM"}, {"measurement": "TGI", "setting": "HL-60(TB) leukemia", "value": "> 75", "unit": "µM"}, {"measurement": "TGI", "setting": "HOP-62 NSCLC", "value": "> 75", "unit": "µM"}, {"measurement": "TGI", "setting": "HT29 colon", "value": "> 75", "unit": "µM"}, {"measurement": "TGI", "setting": "IGROV1 ovarian", "value": "> 75", "unit": "µM"}, {"measurement": "TGI", "setting": "K-562 leukemia", "value": "> 75", "unit": "µM"}, {"measurement": "TGI", "setting": "KM12 colon", "value": "> 75", "unit": "µM"}, {"measurement": "TGI", "setting": "KM20L2 colon", "value": "> 75", "unit": "µM"}, {"measurement": "TGI", "setting": "LOX IMVI melanoma", "value": "> 75", "unit": "µM"}, {"measurement": "TGI", "setting": "LXFL 529 NSCLC", "value": "> 75", "unit": "µM"}, {"measurement": "TGI", "setting": "M14 melanoma", "value": "> 75", "unit": "µM"}, {"measurement": "TGI", "setting": "M19-MEL melanoma", "value": "> 75", "unit": "µM"}, {"measurement": "TGI", "setting": "MALME-3M melanoma", "value": "> 75", "unit": "µM"}, {"measurement": "TGI", "setting": "MOLT-4 leukemia", "value": "> 75", "unit": "µM"}, {"measurement": "TGI", "setting": "NCI-H226 lung", "value": 59.9, "unit": "µM"}, {"measurement": "TGI", "setting": "NCI-H23 lung", "value": "> 75", "unit": "µM"}, {"measurement": "TGI", "setting": "NCI-H460 lung", "value": "> 75", "unit": "µM"}, {"measurement": "TGI", "setting": "NCI-H522 lung", "value": "> 75", "unit": "µM"}, {"measurement": "TGI", "setting": "OVCAR-3 ovarian", "value": "> 75", "unit": "µM"}, {"measurement": "TGI", "setting": "OVCAR-8 ovarian", "value": "> 75", "unit": "µM"}, {"measurement": "TGI", "setting": "RPMI-8226 leukemia", "value": "> 75", "unit": "µM"}, {"measurement": "TGI", "setting": "RXF 393 renal", "value": "> 75", "unit": "µM"}, {"measurement": "TGI", "setting": "SF-268 CNS", "value": "> 75", "unit": "µM"}, {"measurement": "TGI", "setting": "SF-295 CNS", "value": "> 75", "unit": "µM"}, {"measurement": "TGI", "setting": "SF-539 CNS", "value": "> 75", "unit": "µM"}, {"measurement": "TGI", "setting": "SK-MEL-28 melanoma", "value": "> 75", "unit": "µM"}, {"measurement": "TGI", "setting": "SK-OV-3 ovarian", "value": "> 75", "unit": "µM"}, {"measurement": "TGI", "setting": "SN12C renal", "value": "> 75", "unit": "µM"}, {"measurement": "TGI", "setting": "SNB-19 CNS", "value": "> 75", "unit": "µM"}, {"measurement": "TGI", "setting": "SNB-75 CNS", "value": "> 75", "unit": "µM"}, {"measurement": "TGI", "setting": "SNB-78 CNS", "value": "> 75", "unit": "µM"}, {"measurement": "TGI", "setting": "SR leukemia", "value": "> 75", "unit": "µM"}, {"measurement": "TGI", "setting": "SW-620 colon", "value": "> 75", "unit": "µM"}, {"measurement": "TGI", "setting": "TK-10 renal", "value": "> 75", "unit": "µM"}, {"measurement": "TGI", "setting": "U251 CNS", "value": "> 75", "unit": "µM"}, {"measurement": "TGI", "setting": "UACC-257 melanoma", "value": "> 75", "unit": "µM"}, {"measurement": "TGI", "setting": "UACC-62 melanoma", "value": "> 75", "unit": "µM"}, {"measurement": "TGI", "setting": "UO-31 renal", "value": "> 75", "unit": "µM"}]}
